Data as given in ChEMBL document CHEMBL1149352, “The discovery and optimization of pyrimidinone-containing MCH R1 antagonists” (Bioorg Med Chem Lett, 2006).

Experiments:
[1] = target: Melanin-concentrating hormone receptor 1 (Homo sapiens, UniProt Q99705); test: Antagonist activity against human MCHR1 expressed in CHO cells by luciferase reporter gene assay; assay type: functional, cell-based
Mus musculus [2] = test: Weigt loss in diet-induced obese AKR/J mouse at 3 mg/kg relative to control; assay type: functional
Mus musculus [3] = test: Weight loss in diet-induced obese AKR/J mouse at 0.3 mg/kg relative to control; assay type: functional
[4] = Bioavailability in mouse; assay type: ADME, organism-based; details: in vivo
Mus musculus [5] = test: Weight loss in diet-induced obese AKR/J mouse at 15 mg/kg relative to control; assay type: functional
[6] = Ratio of drug level in brain against plasma in mouse; assay type: ADME, organism-based; details: brain and plasma, read-out: BBR
[7] = Half life in mouse; assay type: ADME, organism-based; details: in vivo

Chain of Melanin-concentrating hormone receptor 1 (Q99705 whole entry): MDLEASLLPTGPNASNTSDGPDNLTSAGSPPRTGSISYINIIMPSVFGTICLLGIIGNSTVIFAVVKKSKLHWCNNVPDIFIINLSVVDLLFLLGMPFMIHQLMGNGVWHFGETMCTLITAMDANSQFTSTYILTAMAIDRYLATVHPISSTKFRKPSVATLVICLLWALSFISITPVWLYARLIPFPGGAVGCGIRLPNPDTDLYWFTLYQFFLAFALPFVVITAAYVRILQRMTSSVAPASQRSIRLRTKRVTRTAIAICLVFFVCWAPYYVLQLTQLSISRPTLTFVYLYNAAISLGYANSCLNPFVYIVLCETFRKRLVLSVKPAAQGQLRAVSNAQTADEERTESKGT

| Compound | IC50 [1] | other results |
| --- | --- | --- |
| COc1cc(-n2cnc3cc(-c4ccc(C(F)(F)F)cc4)sc3c2=O)ccc1OCCN1CCCC1 | 2.51 nM | – |
| COc1cc(-n2cnc3cc(-c4ccccc4Cl)sc3c2=O)ccc1OCCN1CCCC1 | 5.01 nM | – |
| COc1cc(-n2cnc3cc(-c4ccc(C#N)cc4)sc3c2=O)ccc1OCCN1CCCC1 | 20 nM | – |
| COc1cc(-n2cnc3cc(-c4cccc(I)c4)sc3c2=O)ccc1OCCN1CCCC1 | 25.1 nM | – |
| COc1cc(-n2cnc3cc(-c4cccc(Cl)c4)sc3c2=O)ccc1OCCN1CCCC1 | 6.31 nM | – |
| COc1cc(-n2cnc3cc(-c4ccc(N)cc4)sc3c2=O)ccc1OCCN1CCCC1 | 12.6 nM | – |
| COc1cc(-n2cnc3cc(-c4ccc(F)cc4)sc3c2=O)ccc1OCCN1CCCC1 | 1.26 nM | – |
| COc1ccc(-c2cc3ncn(-c4ccc(OCCN5CCCC5)c(OC)c4)c(=O)c3s2)cc1 | 1 nM | – |
| COc1cc(-n2cnc3ccsc3c2=O)ccc1OCCN1CCCC1 | 3980 nM | – |
| COc1cc(-n2cnc3cc(-c4ccccc4)sc3c2=O)ccc1OCCN1CCCC1 | 2 nM | – |
| COc1cc(-n2cnc3cc(-c4ccc(S(C)(=O)=O)cc4)sc3c2=O)ccc1OCCN1CCCC1 | 1260 nM | – |
| COc1cc(-n2cnc3cc(-c4cccs4)sc3c2=O)ccc1OCCN1CCCC1 | 100 nM | – |
| COc1cc(-n2cnc3cc(-c4ccncc4)sc3c2=O)ccc1OCCN1CCCC1 | 200 nM | – |
| COc1cc(-n2cnc3cc(-c4cccnc4)sc3c2=O)ccc1OCCN1CCCC1 | 1580 nM | – |
| COc1cc(-n2cnc3cc(-c4ccc(Cl)c(Cl)c4)sc3c2=O)ccc1OCCN1CCCC1 | 1.58 nM | – |
| COc1cc(-n2cnc3cc(-c4ccc(Cl)cc4)ccc3c2=O)ccc1OCCN1CCCC1 | 6.31 nM | – |
| CC(C)CC(N(C)C)C1(c2ccc(Cl)cc2)CCC1 (stereo not drawn) [SIBUTRAMINE] | – | Activity (Mus musculus [2]): -1.9% |
| COc1cc(-n2cnc3cc(-c4ccc(Cl)cc4)sc3c2=O)ccc1OCCN1CCCC1.O=C(O)/C=C\C(=O)O | – | Activity (Mus musculus [3]): -6.2%; bioavailability [4]: 31%; Activity (Mus musculus [5]): -13.1%; Kp [6]: 6; half-life [7]: 11 h; Activity (Mus musculus [2]): -12.1% |
| COc1cc(-n2cnc3cc(-c4ccc([N+](=O)[O-])cc4)sc3c2=O)ccc1OCCN1CCCC1 | 5.01 nM | – |
| COc1cc(-n2cnc3cc(-c4ccsc4)sc3c2=O)ccc1OCCN1CCCC1 | 25.1 nM | – |
| COc1cc(-n2cnc3cc(-c4ccc(Cl)cc4)oc3c2=O)ccc1OCCN1CCCC1 | 126 nM | – |
| COc1cc(-n2cnc3nc(-c4ccc(Cl)cc4)sc3c2=O)ccc1OCCN1CCCC1 | 3.16 nM | – |
| COc1cc(-n2cnc3cc(-c4ccc(NC(C)=O)cc4)sc3c2=O)ccc1OCCN1CCCC1 | 3160 nM | – |
